According to patent publication US20230322815A1, “NOVEL COMPOUNDS AND THERAPEUTIC USES THEREOF” (University of Huddersfield, priority 2020, published 2023):

What was measured:
[1] = Phosphatase activity: hydrolysis of phenyl phosphate
Procedure: FIG. 6. Phosphatase activity of [L2Zn3]^6+. ^31P NMR spectra using different substrates including PhOPO3 (spectra A to D), serine phosphate (spectra E to H), threonine phosphate (spectra I to L) and tyrosine phosphate (spectra M to P). Specific details for each ^31P NMR spectra are as follows: Spectra A, E, I and M represent substrate alone (44 hrs incubated @ 37° C.); Spectra B, F, J and N represents [L2Zn3]^6+ plus substrate (t=0 min); Spectra C, G, K and O represents [L2Zn3]^6+ plus substrate incubated @ 37° C. for 19 hours; Spectra D, H, L and […] represents [L2Zn3]^6+ plus substrate incubated @ 37° C. for 44 hours. The ^31P NMR of [L2Zn3(PO4)]^3+ gives a signal at 8.6 ppm.
Only [L2Zn3(PO4)]^3+ was observed, coupled with a rapid yellowing of the solution due to the formation of 4-nitrophenolate.
The rate of substrate hydrolysis is also dependent upon the metal used in the self-assembly process.

chick embryo = assay: Embryonic toxicity, HCT116 in ovo study; assay type: in vivo, chick (White Leghorn); conditions: for embryo tolerability: all doses tested, no statistically significant difference to solvent control; for % Alive / % Dead / Alive (embryos at E18) / Dead (embryos at E18): HCT116 study
Procedure: (§1) 10^6 tumor cells (H460, HT29 or HCT116) were grafted onto the upper chorioallantoic membrane (CAM) of the developing chick embryo on embryonic day 9 (E9). Access to the upper CAM was through a small hole drilled through the eggshell of fertilized White Leghorn eggs (into the air sac) on E9 (15 eggs per experimental group).
(§2) 100 μl of freshly prepared experimental compound, vehicle control or standard-of-care (SoC) drug at their working concentrations were pipetted onto the tumor graft at E11, E13, E15 and E17. On day E18, the upper CAM (with tumor) was removed, washed by PBS buffer and then directly transferred in PFA (fixation for 48 hrs). After that, tumors were carefully cut away from normal CAM tissue and weighed.
Embryonic viability was checked daily. The number of dead embryos was also counted on E18, to evaluate treatment-induced embryo toxicity.

H460 tumors = assay: Chick embryo chorioallantoic membrane (CAM) assay, in ovo efficacy; assay type: in vivo, human tumor cells on chick embryo CAM; conditions: for doses giving statistically significant regression of tumor growth (mean tumor weight at E18) / doses giving reduction of tumor growth comparable to SoC: L2Zn3 54, 108, 216 μM, L2Cu3 42, 84, 168 μM; for doses giving statistically significant regression of tumor growth (mean tumor weight at E18): 100 μl on tumor graft at E11, E13, E15, E17; for doses giving reduction of tumor growth comparable to SoC: SoC paclitaxel; for H460 metastatic load in the lower CAM (qPCR for Alu sequences): all three tested doses
Procedure: FIG. 21. Activity of [L2Cu3]^6+ and [L2Zn3]^6+ against primary H460 tumors. The results presented represent the mean tumour weight±SEM following treatment at 3 different doses of [L2Cu3]^6+ and [L2Zn3]^6+: L2Zn3 [1]=54 μM, L2Zn3 [2]=108 μM, L2Zn3 [3]=216 μM; L2Cu3 [1]=42 μM, L2Cu3[2]=84 μM, L2Cu3[3]=168 μM. SoC paclitaxel. Statistical analysis by one way ANOVA (*): 0.05≥p value >0.01; (**): 0.01≥p value >0.001; (***): 0.001≥p value; (****): 0.0001≥p value. Number per experimental group n=10-13.
FIG. 22. Evaluation of the effects of [L2Cu3]^6+ and [L2Zn3]^6+ on primary H460 metastasis to the lower CAM. Relative ALU expression (relative to chicken GAPDH) as a quantitive marker of metastasis of human cells to the lower CAM. L2Zn3 [1]=54 μM, L2Zn3 [2]=108 μM, L2Zn3 [3]=216 μM; L2Cu3 [1]=42 μM, L2Cu3[2]=84 μM, L2Cu3[3]=168 μM. SoC paclitaxel. Relative expression ±SEM. Statistical analysis by one way ANOVA (*): 0.05≥p value >0.01; (**): 0.01≥p value >0.001; (***): 0.001≥p value; (****): 0.0001≥p value. Number per experimental group n=7-8.
[L2Cu3]^6+ and [L2Zn3]^6+ were evaluated at three different doses for in ovo anti-cancer activity, toxicity and anti-metastatic activity against tumors initiated from three different human cancer cell line models (H460, HT29, HCT116), in the chick embryo chorioallantoic membrane (CAM) assay.
Each compound was provided to the contract research organisation (CRO) Inovotion (La Tronche, France) conducting the in ovo study, as a powder pre-weighed in single vials (2 equivalents of ligand, 3 equivalents of metal; and stored at room temperature). Before use, this was then dissolved in DMSO to 50 mM to generate a stock solution and further freshly diluted in RPM11640 or McCoys aqueous cell culture media for administration.
A standard of care (SoC) drug for the particular tumour type was tested concurrently as a comparative control for in vivo efficacy and toxicity evaluation. A solvent control served as a negative control for both SoC and experimental compounds.
as §1, §2
On day E18, a 1 cm^2 portion of the lower CAM was collected (n=8 per group), stored at −20° C. and later processed to extract DNA. Samples were analysed for human genomic DNA (qPCR for Alu sequences) as a quantitative marker of tumor metastasis to the lower CAM.

[2] = dose [1]: L2Zn3 70.5 μM, L2Cu3 75 μM
[3] = dose [2]: L2Zn3 141 μM, L2Cu3 150 μM
[4] = dose [3]: L2Zn3 282 μM, L2Cu3 300 μM

SMILES | hydrolysis of phenyl phosphate ([1]; solid-state and ESI-MS data) | embryo tolerability (chick embryo) | % Alive (chick embryo; [2]) [%] | % Dead (chick embryo; [2]) [%] | Alive (embryos at E18) (chick embryo; [2]) | Dead (embryos at E18) (chick embryo; [2]) | % Alive (chick embryo; [3]) [%] | % Dead (chick embryo; [3]) [%] | Alive (embryos at E18) (chick embryo; [3]) | Dead (embryos at E18) (chick embryo; [3]) | % Alive (chick embryo; [4]) [%] | % Dead (chick embryo; [4]) [%] | Alive (embryos at E18) (chick embryo; [4]) | Dead (embryos at E18) (chick embryo; [4]) | doses giving statistically significant regression of tumor growth (mean tumor weight at E18) (H460 tumors) | doses giving reduction of tumor growth comparable to SoC (H460 tumors) | H460 metastatic load in the lower CAM (qPCR for Alu sequences) (H460 tumors) | hydrolysis of PhOPO3^2− by 31P NMR ([1]; 25%:75% DMSO and buffered H2O (HEPES pH 7.5), 37° C., after 44 hrs)
[Cu+2].[Cu+2].[Cu+2].c1ccc(-c2csc(NCCN(CCNc3nc(-c4ccccn4)cs3)CCNc3nc(-c4ccccn4)cs3)n2)nc1.c1ccc(-c2csc(NCCN(CCNc3nc(-c4ccccn4)cs3)CCNc3nc(-c4ccccn4)cs3)n2)nc1 [[L2Cu3]^6+] | does not hydrolyse phenyl phosphate | well tolerated | 100 | 0 | 14 | 0 | 86.67 | 13.33 | 13 | 2 | 86.67 | 13.33 | 13 | 2 | the two highest tested doses | the highest dose | no statistically significant metastatic regression | –
[Zn+2].[Zn+2].[Zn+2].c1ccc(-c2csc(NCCN(CCNc3nc(-c4ccccn4)cs3)CCNc3nc(-c4ccccn4)cs3)n2)nc1.c1ccc(-c2csc(NCCN(CCNc3nc(-c4ccccn4)cs3)CCNc3nc(-c4ccccn4)cs3)n2)nc1 [[L2Zn3]^6+] | – | well tolerated | 100 | 0 | 15 | 0 | 86.67 | 13.33 | 13 | 2 | 80.00 | 20.00 | 12 | 3 | all three tested doses | all three tested doses | Statistically significant decreases | virtually no signal corresponding to PhOPO3^2− is observed
